One data set has as its system L5178Y cells. As to the kind of experiment: Growth inhibition activity against L5178Y cells. To be noted: for IC50: Mus musculus, L5178Y cells, incubated at 37 °C for 48 hours, cell number by Coulter counter. It is filed as cell-based. The procedure: (1) Growth inhibition activity against L5178Y cells:
A solution of each test compound is prepared by dissolving the compound in RRMI 1640 medium containing 10% bovine serum. A cell suspension of L5178Y cells, 1.1× 10⁴ cells/ml, each suspension having a volume of 1.8 ml, is added to each test tube. A solution ( 0.2 ml ) of the test compound hereinabove is added thereto and the medium is tightly sealed and incubated at 37 °C for 48 hours. After incubation, the numberof cells is measured using a Coulter counter and the growth ratio of the cells is determined.

A further data set has as its target T1, Adenosine deaminase (Bos taurus, UniProt P56658).
T1 construct: Adenosine deaminase ( Calf inlestine, 400 U/ml glycerin, Boehringer 102091 ); purchased Boehringer 102091; host or cells: calf intestine (tissue-derived enzyme)
T1 sequence (P56658 1-363): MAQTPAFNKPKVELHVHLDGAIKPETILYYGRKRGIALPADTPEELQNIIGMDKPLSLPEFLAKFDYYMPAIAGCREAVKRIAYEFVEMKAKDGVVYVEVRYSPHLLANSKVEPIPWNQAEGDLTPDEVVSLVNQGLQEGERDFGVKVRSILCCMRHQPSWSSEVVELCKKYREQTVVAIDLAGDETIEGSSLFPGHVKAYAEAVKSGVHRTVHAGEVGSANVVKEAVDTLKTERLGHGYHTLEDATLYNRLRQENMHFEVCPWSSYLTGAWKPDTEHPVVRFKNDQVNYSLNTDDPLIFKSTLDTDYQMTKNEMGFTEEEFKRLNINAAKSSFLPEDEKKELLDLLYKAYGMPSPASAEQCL
As to the kind of experiment: Resistance to adenosine deaminase (remaining sample measured by HPLC). The data set is classed as in vitro ADME, Calf. To be noted: for Remaining ratio (%) 0 min. / remaining at 0.5 h, 500 µM: 0.5 mM test sample, adenosine deaminase, 0.05 M Tris-HCl buffer (pH 7.2), 25 °C; for remaining at 0.5 h, 500 µM: bovine, 30min., read-out: Remaining ratio (%) 30min. How it is done:
(2) Resistance to adenosine deaminase:
A solution 0.5 mM of each test sample is prepared by dissolving the test sample in 0.05 M Tris-HCl buffer (pH 7.2). Adenosine deaminase ( Calf inlestine, 400 U/ml glycerin, Boehringer 102091 ) is diluled ten times with 0.05 M Tris-HCl buffer (pH 7.2) to prepare an adenosine deaminase solulion.
0.5 ml of each sample solulion is mixed with 10 µl of adenosine deaminase solution . The mixtures are allowed to stand in a water bath at 25 °C, and 4 µl samples thereof are pipetted off after 0 and 30 minutes. The remaining sample is measured by HPLC under the following conditions. HPLC: Column : Supersher RP-18-4 Eluent : 15% methanol Flow rate : 1.0 ml/min. Temperature : 50°C

A short description of data set [1]: Single administration toxicity in mice. The following applies: 10 mg/kg, intra peritoneally in mice. The data set is classed as in vivo. The procedure: 2 - Fluoroneplanocin A can be applied for an anti-neoplastic agent. Amount of dosage can be determined by considering curative effect, route of administration, ages or body weight of patient, and in general 10 - 500 mg/man/day will be applied. Administration can be done by perorally or parenterally, for example intravenous injection or drop infusion or intramuscular administration.

Broadly, the IC50 is the concentration at which inhibition is half-maximal. A low value points to higher potency.

In brackets after ≈: the same amount, converted by molar mass.

In turn, `Nc1nc(F)nc2c1ncn2[C@@H]1C=C(CO)[C@@H](O)[C@H]1O` [2-Fluoroneplanocin A, 2-fluoroneplanocin A] gave an IC50 with L5178Y cells of 0.06 µg/mL (≈ 0.213 µM). Moreover, in the data set with L5178Y cells (relative to neplanocin A), the “growth inhibitory activity against L5178Y cells as compared with that of known neplanocin A” value is “three times higher levels”. Further, on Adenosine deaminase, the “Remaining ratio (%) 0 min.” value is recorded as 100% and the remaining at 0.5 h, 500 µM came to 100%. Moreover, the “decomposition by adenosine deaminase” value on Adenosine deaminase (after 30 minutes of incubation) is “not decomposed”. Besides, in data set [1], the death entry is “No death is observed”.
Turning to `Nc1ncnc2c1ncn2[C@@H]1C=C(CO)[C@@H](O)[C@H]1O` [neplanocin A, Neplanocin A], the IC50 with L5178Y cells turned out to be 0.2 µg/mL (≈ 0.76 µM). Moreover, at Adenosine deaminase, the “Remaining ratio (%) 0 min.” value came to 100% and the remaining at 0.5 h, 500 µM was 0%.
